US8293513B2, “Histone deacetylase inhibitors” (Georgetown University, priority 2007, dated 2012)
Read-outs that look alike come from different tables or passages of the source.

Tests used:
[1] = Emission and excitation spectra; type: physicochemical
Procedure: Measurement of the emission and excitation spectra for the compound of Example 1 was performed to confirm the corresponding range for fluorescent visualization in cancer cells and to confirm the fluorescent property of the compound.

[2] = target: HeLa nuclear extracts (histone deacetylase); type: biochemical; conditions: pan-HDAC inhibition assay
Procedure: Reactions were stopped after 15 min with Fluor de Lys Developer. […] The reaction was performed in triplicate for each sample. Each point represents the mean±SD of replicates.

HDAC1 = HDAC1 (Homo sapiens, UniProt Q13547); assay: HDAC isoform inhibition assay (Fluor de Lys, purified protein); type: biochemical
HDAC1, sequence (Q13547 whole entry, species assumed, canonical isoform): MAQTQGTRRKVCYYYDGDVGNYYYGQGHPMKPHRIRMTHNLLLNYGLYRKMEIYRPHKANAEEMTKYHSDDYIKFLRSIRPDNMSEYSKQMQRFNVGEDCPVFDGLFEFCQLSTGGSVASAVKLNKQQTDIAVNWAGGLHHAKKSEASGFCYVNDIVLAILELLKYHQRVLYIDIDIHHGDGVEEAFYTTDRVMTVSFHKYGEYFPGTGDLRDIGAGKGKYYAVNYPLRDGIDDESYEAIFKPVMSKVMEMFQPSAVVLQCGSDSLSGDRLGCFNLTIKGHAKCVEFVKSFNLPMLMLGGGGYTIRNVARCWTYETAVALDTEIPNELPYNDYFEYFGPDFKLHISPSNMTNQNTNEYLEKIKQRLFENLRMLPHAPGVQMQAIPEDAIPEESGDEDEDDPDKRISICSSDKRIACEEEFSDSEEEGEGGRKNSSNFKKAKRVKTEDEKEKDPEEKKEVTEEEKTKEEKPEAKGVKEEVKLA

HDAC2 = HDAC2 (Homo sapiens, UniProt Q92769); assay: as above; type: biochemical
HDAC2, sequence (Q92769 whole entry, species assumed): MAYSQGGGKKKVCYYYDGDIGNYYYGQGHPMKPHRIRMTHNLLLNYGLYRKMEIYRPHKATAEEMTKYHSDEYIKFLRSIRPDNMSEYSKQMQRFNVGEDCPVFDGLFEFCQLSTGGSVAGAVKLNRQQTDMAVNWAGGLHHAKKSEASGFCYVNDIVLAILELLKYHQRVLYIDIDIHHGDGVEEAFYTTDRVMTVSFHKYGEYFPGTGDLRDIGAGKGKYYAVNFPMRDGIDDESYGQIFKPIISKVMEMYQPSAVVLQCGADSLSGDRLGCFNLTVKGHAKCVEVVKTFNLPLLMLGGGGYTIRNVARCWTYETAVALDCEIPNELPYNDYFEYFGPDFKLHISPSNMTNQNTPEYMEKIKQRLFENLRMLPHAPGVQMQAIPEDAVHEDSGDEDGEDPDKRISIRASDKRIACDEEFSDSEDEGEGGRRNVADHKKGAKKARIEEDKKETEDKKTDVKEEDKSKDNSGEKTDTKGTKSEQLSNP

HDAC3 = HDAC3 (Homo sapiens, UniProt O15379); assay: as above; type: biochemical
HDAC3, sequence (O15379 whole entry, species assumed): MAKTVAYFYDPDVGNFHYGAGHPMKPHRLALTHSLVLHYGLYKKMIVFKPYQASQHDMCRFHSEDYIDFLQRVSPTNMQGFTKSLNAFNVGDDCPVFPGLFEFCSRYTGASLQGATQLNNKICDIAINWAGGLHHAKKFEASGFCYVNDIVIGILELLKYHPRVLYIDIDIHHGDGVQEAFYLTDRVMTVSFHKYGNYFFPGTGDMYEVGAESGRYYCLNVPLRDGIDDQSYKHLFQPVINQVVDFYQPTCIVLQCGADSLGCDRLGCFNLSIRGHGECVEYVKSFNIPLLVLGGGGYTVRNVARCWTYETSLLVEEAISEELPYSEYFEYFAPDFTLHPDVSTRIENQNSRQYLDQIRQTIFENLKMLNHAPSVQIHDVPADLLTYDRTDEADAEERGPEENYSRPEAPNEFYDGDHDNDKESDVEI
HDAC3, sequence (O75376 395-489 partner limits assumed, species assumed): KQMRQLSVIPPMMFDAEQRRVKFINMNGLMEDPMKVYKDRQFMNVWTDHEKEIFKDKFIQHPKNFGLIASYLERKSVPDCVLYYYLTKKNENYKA

HDAC6 = target: T1, HDAC6 (Homo sapiens, UniProt Q9UBN7); assay: as above; type: biochemical
T1 sequence (Q9UBN7 1-1215): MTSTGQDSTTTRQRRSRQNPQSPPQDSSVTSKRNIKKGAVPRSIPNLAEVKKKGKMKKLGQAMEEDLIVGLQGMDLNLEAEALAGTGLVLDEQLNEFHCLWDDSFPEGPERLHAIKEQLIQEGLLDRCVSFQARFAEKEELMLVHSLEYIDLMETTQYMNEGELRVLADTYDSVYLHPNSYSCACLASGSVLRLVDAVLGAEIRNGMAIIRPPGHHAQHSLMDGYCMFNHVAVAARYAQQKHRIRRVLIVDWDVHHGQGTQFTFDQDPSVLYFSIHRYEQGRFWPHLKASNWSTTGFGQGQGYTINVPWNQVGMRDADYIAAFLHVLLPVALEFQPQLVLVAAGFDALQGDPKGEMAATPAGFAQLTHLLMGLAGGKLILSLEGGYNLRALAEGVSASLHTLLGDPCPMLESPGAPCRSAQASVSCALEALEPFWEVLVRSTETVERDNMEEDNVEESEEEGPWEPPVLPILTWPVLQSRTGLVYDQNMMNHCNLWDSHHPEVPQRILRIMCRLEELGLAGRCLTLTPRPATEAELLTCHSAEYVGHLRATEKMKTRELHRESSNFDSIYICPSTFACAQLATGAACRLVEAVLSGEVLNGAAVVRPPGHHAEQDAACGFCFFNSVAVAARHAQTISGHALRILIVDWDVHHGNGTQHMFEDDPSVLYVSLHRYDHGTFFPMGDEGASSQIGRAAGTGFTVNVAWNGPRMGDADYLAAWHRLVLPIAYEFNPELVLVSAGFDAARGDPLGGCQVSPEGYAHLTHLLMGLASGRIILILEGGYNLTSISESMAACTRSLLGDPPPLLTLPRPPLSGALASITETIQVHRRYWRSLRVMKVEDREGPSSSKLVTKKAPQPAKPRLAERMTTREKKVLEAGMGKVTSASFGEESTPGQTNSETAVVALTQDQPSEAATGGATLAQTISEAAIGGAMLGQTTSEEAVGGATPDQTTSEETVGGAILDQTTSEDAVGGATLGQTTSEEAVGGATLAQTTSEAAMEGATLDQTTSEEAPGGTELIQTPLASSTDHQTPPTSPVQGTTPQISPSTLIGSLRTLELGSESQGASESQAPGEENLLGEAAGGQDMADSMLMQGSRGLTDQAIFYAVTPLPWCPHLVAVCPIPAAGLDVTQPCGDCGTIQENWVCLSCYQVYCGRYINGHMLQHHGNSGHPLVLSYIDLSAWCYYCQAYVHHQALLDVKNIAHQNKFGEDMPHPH

[3] = system: C42 (androgen-independent prostate cancer); assay: Cell growth inhibition (CellTiter 96 AQueous One, MTS); type: cell-based; conditions: C4-2; C42 cells, 48 hours; read-out: Proliferation IG50 C42
Procedure: (§1) The cell lines used were PC-3 (prostate cancer), C42 (androgen-independent prostate cancer), LNCap (androgen-dependent prostate cancer), SQ20B (squamous cell carcinoma), MCF7 (breast cancer) and MDA-231 (breast cancer).
(§2) Cells were seeded at 5,000 per well in […] of growing medium in 96-well tissue culture plates. At 24 hours after seeding, a solution of the compound or DMSO vehicle control were added to each well to a total volume of […] (three replicates per concentration), and incubated for 48 hours at 37° C. Growth inhibition was determined using CellTiter 96® AQueous One Solution Cell Proliferation according to manufacturer's instructions (Technical Bulletin: CellTiter 96® AQueous One Solution Cell Proliferation Assay. Instructions for Use of Products G3580, G3581 and G3582; Promega, Inc. Madison, Wis., Revised 4/2005), and the absorbance measured at 490 nm on a microplate reader. The CellTiter 96® AQueous One Solution Cell Proliferation Assay is a colorimetric method for determining the number of viable cells in proliferation, cytotoxicity or chemosensitivity assays and contains a tetrazolium compound [3-(4,5-dimethylthiazol-2-yl)-5-(3-carboxymethoxyphenyl)-2-(4-sulfophenyl)-2H-tetrazolium, inner salt; “MTS”] and an electron coupling reagent (phenazine ethosulfate; PES). The MTS tetrazolium compound (Owen's reagent) is bioreduced by cells into a colored formazan product that is soluble in tissue culture medium. Assays are performed by adding a small amount of the CellTiter 96® AQueous One Solution Reagent directly to culture wells, incubating for 1-4 hours and then recording the absorbance at 490 nm with a 96-well plate reader. The quantity of formazan product as measured by the absorbance at 490 nm is directly proportional to the number of living cells in culture.
(§3) The 50% growth inhibition (IG50) was calculated as the compound concentration required to reduce cell number by 50% compared with control.

[4] = system: LNCap (androgen-dependent prostate cancer); assay: as above; type: cell-based; conditions: Homo sapiens; LNCap cells, 48 hours; read-out: Proliferation IG50 LNCap
Procedure: as §1, §2, §3

MCF7 (breast cancer) = assay: as above; type: cell-based; conditions: Homo sapiens; MCF7 cells, 48 hours; read-out: Proliferation IG50 MCF7
Procedure: as §1, §2, §3

MDA-231 (breast cancer) = assay: as above; type: cell-based; conditions: Homo sapiens, MDA-MB-231; MDA-231 cells, 48 hours; read-out: Proliferation IG50 MDA-231
Procedure: as §1, §2, §3

PC-3 (prostate cancer) = assay: as above; type: cell-based; conditions: Homo sapiens, PC3 cells, 48 hours, read-out: Proliferation IG50 PC3
Procedure: as §1, §2, §3

[5] = system: SQ20B (squamous cell carcinoma); assay: as above; type: cell-based; conditions: Homo sapiens; SQ20B cells, 48 hours; read-out: Proliferation IG50 SQ20B
Procedure: as §1, §2, §3

LNCap cells = assay: Cell cycle distribution (propidium iodide, FACS); type: cell-based; conditions: 24 hours after adding the compound
Procedure: (§4) LNCap and PC-3 cells were incubated in the presence or absence of compound. The cells were harvested at the indicated time points after addition of compound then washed twice with cold phosphate-buffered saline. Cells (1-2×10^6) were resuspended in 0.5 ml of ice-cold phosphate-buffered saline, and single cell suspension was verified microscopically. The cell suspension was gradually mixed with ice-cold absolute ethanol to the final volume of 2.0 ml, and cooled on ice at least for 20 min before staining with propidium iodide. The cell cycle distributions were measured in a fluorescence-activated cell sorter from Becton Dickinson. DNA content was quantified using ModFit LT 3.0 software (Verity Software House, Inc.).

PC-3 cells [6] = assay: Cell cycle distribution (propidium iodide, FACS); type: cell-based; conditions: PC-3, 24 hours after adding the compound
Procedure: as §4

DU145 cells = assay: Fluorescence imaging of compound localization in cells; type: cell-based, human; conditions: DU-145 cells, for 60 minutes (FIG. 2)
Procedure: (§5) Human prostate cancer cell lines PC-3 and DU145 cells were plated down onto glass slides at a density of 500,000 per slide and incubated overnight. […] The slides were then washed three times with phosphate-buffered saline. The cells were then fixed with a 4% solution of formaldehyde for ten minutes, washed four times with phosphate-buffered saline and mounted. For slides with nuclear staining, cells were treated with propidium iodide (1:1000) for 4 minutes after fixation, washed four times with PBS and mounted.
(§6) Propidium Iodide was imaged with an excitation wavelength of 535 and an emission wavelength of 617. Images were taken at 63×.

PC-3 cells [7] = assay: as above; type: cell-based, human; conditions: 20 μM
Procedure: as §5, §6

A549 (lung cancer) cells = assay: Imaging of tubulin acetylation; type: cell-based; conditions: 20 μM, 60 minutes (FIG. 4), versus untreated control
Procedure: Images A, B, and C show the cells after treatment with the histone deacetylase inhibitor (20 μM) for 60 minutes. […] Image C is the DIC image, while image D is a merger of images A, B, and C.

A549 cells = assay: Imaging of histone acetylation; type: cell-based; conditions: 20 μM, 60 minutes (FIG. 5), versus untreated control
Procedure: Images A, B, C and D show the cells after treatment with the histone deacetylase inhibitor (20 μM) for 60 minutes. […] Image C is the DIC image.

HDAC8 = target: T2, HDAC8 (Homo sapiens, UniProt Q9BY41); assay: biochemical
T2 sequence (Q9BY41 1-377): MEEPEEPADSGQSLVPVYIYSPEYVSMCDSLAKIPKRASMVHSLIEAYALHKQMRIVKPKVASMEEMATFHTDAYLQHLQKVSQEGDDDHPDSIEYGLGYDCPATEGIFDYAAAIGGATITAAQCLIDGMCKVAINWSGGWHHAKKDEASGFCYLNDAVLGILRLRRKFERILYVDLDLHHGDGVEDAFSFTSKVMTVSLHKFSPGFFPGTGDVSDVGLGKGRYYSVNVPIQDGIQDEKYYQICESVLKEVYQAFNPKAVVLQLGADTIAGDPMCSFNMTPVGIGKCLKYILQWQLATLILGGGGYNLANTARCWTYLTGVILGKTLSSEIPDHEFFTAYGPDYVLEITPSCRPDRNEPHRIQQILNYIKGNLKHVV

HDAC4 = HDAC4 (Homo sapiens, UniProt P56524); conditions: PC3 cells, 1 μM, 24 hours (FIG. 6)
HDAC4, sequence (P56524 whole entry): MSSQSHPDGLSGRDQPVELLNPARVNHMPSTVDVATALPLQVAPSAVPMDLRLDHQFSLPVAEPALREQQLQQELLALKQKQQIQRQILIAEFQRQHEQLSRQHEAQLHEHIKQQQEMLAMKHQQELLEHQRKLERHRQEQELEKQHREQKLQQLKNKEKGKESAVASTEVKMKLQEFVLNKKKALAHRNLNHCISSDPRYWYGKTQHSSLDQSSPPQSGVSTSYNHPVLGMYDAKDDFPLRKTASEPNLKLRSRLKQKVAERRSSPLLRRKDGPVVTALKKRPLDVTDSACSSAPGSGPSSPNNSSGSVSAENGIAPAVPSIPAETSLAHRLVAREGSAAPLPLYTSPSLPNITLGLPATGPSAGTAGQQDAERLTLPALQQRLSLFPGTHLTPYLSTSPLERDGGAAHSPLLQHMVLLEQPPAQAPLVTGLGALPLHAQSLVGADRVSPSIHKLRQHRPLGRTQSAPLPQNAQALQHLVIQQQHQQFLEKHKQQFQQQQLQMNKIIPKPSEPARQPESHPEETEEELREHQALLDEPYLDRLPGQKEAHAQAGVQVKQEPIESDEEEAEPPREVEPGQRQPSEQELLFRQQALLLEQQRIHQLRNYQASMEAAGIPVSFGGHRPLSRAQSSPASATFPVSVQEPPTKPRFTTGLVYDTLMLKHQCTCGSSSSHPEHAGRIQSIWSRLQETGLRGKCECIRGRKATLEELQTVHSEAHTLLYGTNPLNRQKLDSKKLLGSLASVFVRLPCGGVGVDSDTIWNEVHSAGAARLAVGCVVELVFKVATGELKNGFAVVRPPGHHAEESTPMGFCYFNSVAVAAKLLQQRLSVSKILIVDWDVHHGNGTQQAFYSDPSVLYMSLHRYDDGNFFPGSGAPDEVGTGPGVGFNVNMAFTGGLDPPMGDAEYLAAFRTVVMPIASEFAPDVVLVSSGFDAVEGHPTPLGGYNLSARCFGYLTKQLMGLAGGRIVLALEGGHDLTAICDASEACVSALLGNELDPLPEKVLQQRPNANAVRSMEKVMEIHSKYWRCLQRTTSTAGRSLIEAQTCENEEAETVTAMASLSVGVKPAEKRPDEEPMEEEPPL
Procedure: Human prostate cancer PC3 cells were cultured in Dulbecco's Modified Eagle's Medium (DMEM) with 5% serum at 37° C. over night. […] Control cells were incubated in the absence of test compound.
After 24 hours, the cells were washed with phosphate-buffered saline (1×) one time, and fixed with 4% percent of paraformaldehyde for 15 min. Non specific binding was blocked with 10% normal goat serum in phosphate-buffered saline containing 0.2% tween-20 (sigma aldrich P7949) for 1 hour. Cells were treated with mouse monoclonal anti-HDAC4 antibody (Sigma Aldrich H0163) 1:200 dilution in 5% goat serum in PBS for 1 hour at room temperature. The cells were washed three times with phosphate buffered saline (1×). […] The cells were washed with phosphate-buffered saline (1×) three times. Vecta shield mounting medium for florescence with DIPA (Vector laboratory H-1200) were loaded on the cells and covered with cover glass. The cells were then treated with HDAC4 antibody to visualize HDAC4 and with 4′,6-diamidino-2-phenylindole (DAPI) to visualize the nuclei.
Fluorescence microscopy was used to observe the immunohistostaining results.

[8] = HeLa nuclear extracts (Table 2), read-out: HDAC IC50
[9] = HeLa nuclear extracts (Table 3), read-out: pan-HDAC IC50

Row | SMILES | IC50 [2, 8] [nM] | IC50 [2, 9] [nM] | IC50 (HDAC1) [nM] | IC50 (HDAC2) [nM] | IC50 (HDAC3) [nM] | IC50 (HDAC6) [nM] | Cell cycle distribution G1 (PC-3 cells [6]) [%] | Cell cycle distribution G2 (PC-3 cells [6]) [%] | Cell cycle distribution S (PC-3 cells [6]) [%] | further results
1 | CN(C)c1cccc2c(S(=O)(=O)NCCCCCC(=O)NO)cccc12 [Example 1, 6-(5-(Dimethylamino)naphthalene-1-sulfonamido)-N-hydroxyhexanamide] | 125 | 125 | 956 | 1380 | 1120 | 129 | 64.35 | 15.74 | 19.91 | Emiss (emission wavelength) [1]: 500 nm; Exc (excitation wavelength) [1]: 320 nm; IC50 [3]: 1.91 nM; IC50 [4]: 1.22 nM; IC50 (MCF7 (breast cancer)): 9.2 nM; IC50 (MDA-231 (breast cancer)): 12.2 nM; IC50 (PC-3 (prostate cancer)): 1.54 nM; IC50 [5]: 6.42 nM; Cell cycle distribution G1 (LNCap cells): 85.23%; Cell cycle distribution G2 (LNCap cells): 5.59%; Cell cycle distribution S (LNCap cells): 9.18%; Localization of compound fluorescence in cells (DU145 cells): seen fluorescing (green fluorescence) in the cytoplasm; Co-localization with nuclei stained with propidium iodide (PC-3 cells [7]; PC3 cells, 60 min (FIG. 3)): does not localize to nuclei; Localization of compound fluorescence in cells (PC-3 cells [7]; PC-3 cells, 60 minutes (FIG. 2)): present in the cytoplasm but not the nucleus of cells; Tubulin acetylation in the cytoplasm (A549 (lung cancer) cells): increased tubulin acetylation; Histone acetylation in the nucleus (A549 cells): increased nuclear histone acetylation; IC50 (HDAC8): 2900 nM
2 | CN(C)c1cccc2c(S(=O)(=O)NCCCCC(=O)NO)cccc12 [Example 2] | 287 |  |  |  |  |  |  |  |  | 
3 | CN(C)c1cccc2c(S(=O)(=O)NCCCCCCC(=O)NO)cccc12 [Example 3] | 116 | 116 | 1290 | 7400 | 4890 | 76.2 |  |  |  | 
4 | CN(C)c1cccc2c(S(=O)(=O)NCCCCCCCC(=O)NO)cccc12 [Example 4] | 208 |  |  |  |  |  |  |  |  | 
5 | O=C(CCCCCCC(=O)Nc1ccccc1)NO [SAHA, suberoylanilide hydroxamic acid, reference compound] |  |  |  |  |  |  | 72.28 | 13.39 | 14.33 | HDAC4 distribution between cytoplasm and nuclei (HDAC4): traps HDAC4 in the cytoplasm of the cells
